Data taken from publication PMC5021521, “Coordinated recruitment of Spir actin nucleators and myosin V motors to Rab11 vesicle membranes” (eLife, 2016).
Peptide text beside a SMILES is read from it. * marks the point of attachment. 5FAM = O=C1OC2(c3ccc(O)cc3Oc3cc(O)ccc32)c2ccc(C(=O)*)cc21; Ahx = NCCCCCC(=O)O

Tests used:
Format in all cases: binding
[1] = biological target: T1, MyoVa-GTD (Homo sapiens, UniProt Q9Y4I1); experiment: Fluorescence anisotropy, fluorescein-labeled Spir-2 peptide; conditions: 1 µM peptide, MyoVa-GTD 50 nM–5 µM; 100 mM Tris-HCl pH 8.0, 150 mM NaCl, 2 mM MgCl2, 2 mM TCEP, 5% glycerol; 25°C; ± standard error; repeated twice with two protein preparations; read-out: equilibrium dissociation constant (Kd)
T1 construct: aa 1461 - 1853 (BamHI / XhoI); His6 (6xHis) with rTEV site (N, cleaved yes); made in house; host or cells: Escherichia coli BL21(DE3) or BL21-CodonPlus-RILP
Method: (§1) Fluorescence anisotropy measurements were performed on a PTI Quanta-Master QM4CW spectrofluorometer (PTI, Lawrenceville, NJ, USA) at 25°C using a 10 mm wide quartz cell. Bandwidths of excitation and emission monochromators were set respectively at 5 and 15 nm. Fluorescence anisotropy, expressed in millianisotropy units, was calculated according to the equation A=IVV−GIVH/IVV+2GIVH
(§2) with A is anisotropy, G = IHV/IHH is a correction factor for wavelength-dependent distortion, and I is the fluorescence intensity component. Anisotropy values were averaged from 30 different acquisitions. The cell was charged with 1 µM of fluorescein labeled Spir-2-401-427 peptide in a final volume of 1 ml in buffer (100 mM Tris-HCl pH 8.0, 150 mM NaCl, 2 mM MgCl2, 2 mM TCEP, 5% (v/v) glycerol) and titrated with MyoVa-GTD or MyoVb-GTD (50 nM–5 µM). The binding isotherms were fitted to obtain the equilibrium dissociation constants Kd and standard errors, by using the Origin 2015 software that implements Levenberg Marquardt iterative minimization algorithms, using the equation y=F0+Fm−F0/2P(P+x+Kd−(P+x+Kd)^2−4Px)
(§3) with y represents the fluorescence anisotropy, x the concentration of MyoV-GTD, F0 the initial anisotropy, Fm the maximum anisotropy, and P the peptide concentration. Experiments were repeated twice with two different protein preparations.

[2] = biological target: T2, MyoVb-GTD (Homo sapiens, UniProt Q9ULV0); experiment: as above
T2 construct: aa 1456 - 1848 (BamHI / XhoI); His6 (6xHis) with rTEV site (N, cleaved yes); made in house; host or cells: Escherichia coli BL21(DE3) or BL21-CodonPlus-RILP
T2 sequence (Q9ULV0 1456-1848): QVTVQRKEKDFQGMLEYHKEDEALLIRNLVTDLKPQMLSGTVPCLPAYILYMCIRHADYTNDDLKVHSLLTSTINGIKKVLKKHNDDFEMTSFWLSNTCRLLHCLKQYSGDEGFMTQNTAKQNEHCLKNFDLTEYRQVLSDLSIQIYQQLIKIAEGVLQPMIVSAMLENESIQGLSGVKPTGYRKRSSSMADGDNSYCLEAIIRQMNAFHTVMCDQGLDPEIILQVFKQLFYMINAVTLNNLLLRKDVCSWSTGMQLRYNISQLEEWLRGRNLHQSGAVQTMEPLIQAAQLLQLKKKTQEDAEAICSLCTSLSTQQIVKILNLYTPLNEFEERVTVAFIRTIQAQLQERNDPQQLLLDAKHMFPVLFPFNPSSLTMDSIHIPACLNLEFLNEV
Method: as §1, §2, §3

[3] = biological target: T3, MyoVc-GTD (Homo sapiens, UniProt Q9NQX4); experiment: Microscale thermophoresis, fluorescein-labeled Spir-2 peptide; conditions: human Spir-2 aa 401–427
T3 construct: aa 1350 - 1742 (BamHI / XhoI); His6 (6xHis) with rTEV site (N, cleaved yes); made in house; host or cells: Escherichia coli BL21(DE3) or BL21-CodonPlus-RILP
Method: MST experiments were performed on a Monolith NT.115 system (NanoTemper Technologies, München, Germany) using 5% LED and 30% IR-laser power at 21.5°C. Laser on and off times were set at 30 s and 5 s, respectively. Fluorescein labeled Spir-2 peptide was synthesized by Genscript, the peptide was dissolved in PBS with 0.005% Tween-20 and diluted to 1 μM concentration. A two-fold dilution series was prepared for the MyoVc-GTD in the interaction buffer (50 mM Tris pH 8.0, 250 mM NaCl, 2 mM MgCl2, 2 mM TCEP, 5% (v/v) glycerol) and each dilution point was transferred to the Fluorescein-Spir-2 solution. The final concentrations of MyoVc-GTD ranged from 97 μM to 2.96 nM, the final concentration of the labeled peptide was 500 nM. Samples were filled into premium capillaries (NanoTemper Technologies) for measurements. The experiments were performed with three independent replicates. The affinity was quantified by analyzing the change in normalized fluorescence as a function of the concentration of the titrated peptide using the NTAnalysis software provided by the manufacturer.

[4] = biological target: T1, MyoVa-GTD; experiment: Surface plasmon resonance, Rab11a captured; conditions: MyoVa-GTD 10 nM–5 µM over captured Rab11a-Q70L(GTP) or Rab11-wt(GDP); 50 mM Hepes pH 7.5, 100 mM NaCl, 2 mM MgCl2, 1 mM TCEP; 25°C; steady state; mean ± SEM, N = 3; read-out: dissociation equilibrium constant (Kd)
Method: (§4) The assays were carried out at 25°C in buffer (50 mM Hepes pH 7.5, 100 mM NaCl, 2 mM MgCl2, 1 mM TCEP). 200–250 resonance units (RU; 1RU ≈ 1 pg × mm^−2) of Rab11a-Q70L(GTP) or Rab11-wt(GDP) were captured through their His6-tag on the surface of a NTA sensorchip using a Biacore 2000 instrument (GE Healthcare Life Sciences). MyoVa-GTD or MyoVb-GTD (10 nM–5 µM) were then injected over the tethered Rabs for one minute at a flow rate of […]. The surface was regenerated with a 2-min 0.3 M EDTA incubation and a 1-min 0.1% SDS wash. The real-time interaction profiles were double referenced using the Scrubber 2.0 software (BioLogic Software, Campbell, Australia), both the signals from a reference surface (with a non-relevant protein captured on NTA) and from blank experiments using buffer instead of MyoV-GTD were subtracted. The MyoV-GTD concentration-dependence of the steady-state SPR signals was then analyzed to determine the dissociation equilibrium constants (Kd) of the different complexes using the numerical integration algorithm software Biaevaluation 4.1. Each experiment (10 point 2-fold dilution concentration series each) was repeated in triplicate, yielding mean Kd values and standard errors (SEM).

[5] = biological target: T2, MyoVb-GTD; experiment: Surface plasmon resonance, Rab11a captured; conditions: MyoVb-GTD 10 nM–5 µM over captured Rab11a-Q70L(GTP) or Rab11-wt(GDP); 50 mM Hepes pH 7.5, 100 mM NaCl, 2 mM MgCl2, 1 mM TCEP; 25°C; steady state; mean ± SEM, N = 3; read-out: dissociation equilibrium constant (Kd)
Method: as §4

T1 sequence (Q9Y4I1 1463-1855): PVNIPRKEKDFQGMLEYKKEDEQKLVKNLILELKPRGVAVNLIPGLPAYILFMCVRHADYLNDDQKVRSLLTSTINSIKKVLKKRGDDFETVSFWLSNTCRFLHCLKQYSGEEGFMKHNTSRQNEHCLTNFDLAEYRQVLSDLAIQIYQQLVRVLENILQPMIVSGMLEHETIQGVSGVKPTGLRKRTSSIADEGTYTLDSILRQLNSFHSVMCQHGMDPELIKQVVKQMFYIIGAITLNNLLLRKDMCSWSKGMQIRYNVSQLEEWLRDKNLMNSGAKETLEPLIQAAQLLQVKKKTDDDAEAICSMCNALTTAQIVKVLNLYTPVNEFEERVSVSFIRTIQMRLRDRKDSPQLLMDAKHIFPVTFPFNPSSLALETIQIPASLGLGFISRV
T3 sequence (Q9NQX4 1350-1742): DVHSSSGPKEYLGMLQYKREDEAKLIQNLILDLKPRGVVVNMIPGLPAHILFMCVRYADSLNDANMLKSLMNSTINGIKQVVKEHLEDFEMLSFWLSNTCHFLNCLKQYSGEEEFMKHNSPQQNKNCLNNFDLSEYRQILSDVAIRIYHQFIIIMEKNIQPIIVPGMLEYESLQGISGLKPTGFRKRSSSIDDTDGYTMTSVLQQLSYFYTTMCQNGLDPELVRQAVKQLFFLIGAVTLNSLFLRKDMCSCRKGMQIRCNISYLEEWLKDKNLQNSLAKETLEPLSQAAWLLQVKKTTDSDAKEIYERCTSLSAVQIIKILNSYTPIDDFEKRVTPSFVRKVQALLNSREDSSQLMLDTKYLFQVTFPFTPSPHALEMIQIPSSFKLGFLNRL

For `CSCC[C@H](NC(=O)[C@H](CCC(=O)O)NC(=O)[C@H](C)NC(=O)[C@H](CC(C)C)NC(=O)[C@@H](NC(=O)[C@@H]1CCCN1C(=O)[C@H](C)NC(=O)[C@H](CCCCN)NC(=O)[C@H](CC(C)C)NC(=O)[C@H](CC(C)C)NC(=O)[C@@H](NC(=O)[C@H](CCCNC(=N)N)NC(=O)[C@@H]1CCCN1C(=O)[C@H](CCCNC(=N)N)NC(=O)[C@@H]1CCCN1C(=O)[C@H](CCCNC(=N)N)NC(=O)[C@H](CCC(N)=O)NC(=O)CCCCCNC(=O)c1ccc2c(c1)C(=O)OC21c2ccc(O)cc2Oc2cc(O)ccc21)C(C)C)[C@@H](C)O)C(=O)N[C@@H](CCC(=O)O)C(=O)N[C@@H](CCC(=O)O)C(=O)N[C@@H](CCSC)C(=O)N[C@@H](CC(N)=O)C(=O)N[C@H](C(=O)N[C@@H](CO)C(=O)N[C@@H](CCC(=O)O)C(=O)N[C@@H](CCC(=O)O)C(=O)N[C@@H](CCC(=O)O)C(=O)N[C@@H](CCC(=O)O)C(=O)O)[C@@H](C)O` [Fluorescein-Spir-2-GTBM] ({5FAM-Ahx}-QRPRPRVLLKAPTLAEMEEMNTSEEEE-OH), the Kd [1] was 900 ± 110 nM and the Kd ([2]; 1 µM peptide, MyoVb-GTD 50 nM–5 µM, 100 mM Tris-HCl pH 8.0, 150 mM NaCl, 2 mM MgCl2, 2 mM TCEP, 5% glycerol, 25°C, ± standard error, repeated twice with two protein preparations, read-out: equilibrium dissociation constant (Kd)) was 2000 ± 70 nM.

“QRPRPRVLLKAPTLAEMEEMNTSEEEE [Spir-2-GTBM]” was tested, and the “binding affinity in words” value ([2]; human Spir-2 aa 401–427) was “low micromolar affinity” and the “binding affinity in words” value [3] was “micromolar range affinity”.

B1: Rab11GTP: Rab11a-Q70L(GTP) captured through its His6-tag (protein, UniProt P62491 2-213, looked up, variant Q70L)
Ras-related protein Rab-11A: GTRDDEYDYLFKVVLIGDSGVGKSNLLSRFTRNEFNLESKSTIGVEFATRSIQVDGKTIKAQIWDTAGLERYRAITSAYYRGAVGALLVYDIAKHLTYENVERWLKELRDHADSNIVIMLVGNKSDLRHLRAVPTDEARAFAEKNGLSFIETSALDSTNVEAAFQTILTEIYRIVSQKQMSDRRENDMSPSNNVVPIHVPPTTENKPKVQCC
modifications: His6 tag; GTP-bound
With B1 the Kd [4] was 203 ± 42 nM and the Kd [5] was 1370 ± 240 nM.
